Data reported in PMC9688344, “[^225Ac]Ac-SibuDAB for Targeted Alpha Therapy of Prostate Cancer: Preclinical Evaluation and Comparison with [^225Ac]Ac-PSMA-617” (Cancers, 2022).

Experiments:
[1] = tested on: PSMA-positive PC-3 PIP cells; assay: Cell uptake and internalization; assay type: cell-based; conditions: 4 h incubation; % of total added activity
PSMA = target: T1, PSMA (Homo sapiens, UniProt Q04609); assay: PSMA-binding affinity (KD values) on PC-3 PIP cells; conditions: on ice
T1 construct: expressed in transfected cells; host or cells: PC-3 PIP prostate cancer cells (transduced to express PSMA), provided by Prof; Dr. Martin Pomper, Johns Hopkins University

[2] = tested on: PC3-PIP/flu tumor-bearing mice; assay: Biodistribution studies; assay type: in vivo, BALB/c nude mice
[3] = Radioligand integrity by thin-layer chromatography; assay type: physicochemical; conditions: over a period of 48 h
Description: The PSMA ligands used in this study were synthesized using solid-phase chemistry methods as previously reported. The labeling of the PSMA ligands with actinium-225 was performed at ITM Medical Isotopes GmbH, Munich, Germany (Supplementary Material: Section S1). The radioligands (~50 kBq/nmol; ~0.5 MBq/mL) were shipped to the Paul Scherrer Institute (PSI) overnight followed by assessing their integrity using thin-layer chromatography. […] Depending on the experiment, the molar activity of the radioligands was adjusted by adding unlabeled ligand and the final formulation was prepared by adding vehicle (saline with 0.05% bovine serum albumin (BSA)) to obtain the desired activity concentration. Radiolabeling of SibuDAB with lutetium-177 (5–10 MBq/nmol) was performed as previously reported.

T1 sequence (Q04609 whole entry): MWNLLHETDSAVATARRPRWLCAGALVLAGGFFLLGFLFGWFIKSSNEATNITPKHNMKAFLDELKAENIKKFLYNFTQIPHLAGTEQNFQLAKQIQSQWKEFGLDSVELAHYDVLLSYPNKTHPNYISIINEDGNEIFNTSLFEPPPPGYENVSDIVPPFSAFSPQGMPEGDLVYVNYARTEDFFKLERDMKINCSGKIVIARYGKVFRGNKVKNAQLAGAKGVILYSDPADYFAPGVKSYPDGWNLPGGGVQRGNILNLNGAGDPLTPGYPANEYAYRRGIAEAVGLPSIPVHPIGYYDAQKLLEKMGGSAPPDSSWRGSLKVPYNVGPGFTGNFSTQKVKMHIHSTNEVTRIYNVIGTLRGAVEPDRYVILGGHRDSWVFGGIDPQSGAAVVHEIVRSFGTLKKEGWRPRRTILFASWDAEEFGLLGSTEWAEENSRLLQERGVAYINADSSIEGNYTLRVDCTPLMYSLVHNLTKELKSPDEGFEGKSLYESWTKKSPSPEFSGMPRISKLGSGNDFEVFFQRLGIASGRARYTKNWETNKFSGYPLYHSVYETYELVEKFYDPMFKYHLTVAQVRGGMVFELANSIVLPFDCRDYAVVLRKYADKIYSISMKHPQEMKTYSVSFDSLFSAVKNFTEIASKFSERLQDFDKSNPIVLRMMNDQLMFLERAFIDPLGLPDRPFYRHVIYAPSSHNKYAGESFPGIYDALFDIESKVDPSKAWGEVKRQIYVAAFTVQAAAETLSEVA

## O=C([O-])CN1CCN(CC(=O)[O-])CCN(CC(=O)NCC2CCC(C(=O)NC(Cc3ccc4ccccc4c3)C(=O)NCCCCC(NC(=O)NC(CCC(=O)O)C(=O)O)C(=O)O)CC2)CCN(CC(=O)[O-])CC1.[225Ac+3] (centres unmarked) [[^225Ac]Ac-PSMA-617]
[1]
  Cell uptake: 63 ± 5%
  Internalization (internalized fraction): 19 ± 3%
PSMA
  Kd: 11 nM
[2]; 1 h p.i.
  Blood, accumulated activity: 0.62 ± 0.12 % IA/g
  Bone, accumulated activity: 0.46 ± 0.13 % IA/g
  Heart, accumulated activity: 0.35 ± 0.09 % IA/g
  Intestines, accumulated activity: 0.29 ± 0.12 % IA/g
  Kidneys, accumulated activity: 12 ± 3 % IA/g
  Liver, accumulated activity: 0.46 ± 0.10 % IA/g
  Lung, accumulated activity: 0.76 ± 0.23 % IA/g
  Muscle, accumulated activity: 0.18 ± 0.06 % IA/g
  PC-3 PIP tumor, accumulated activity: 46 ± 13 % IA/g
  PC-3 flu tumor, accumulated activity: 0.30 ± 0.06 % IA/g
  Salivary glands, accumulated activity: 0.30 ± 0.06 % IA/g
  Spleen, accumulated activity: 0.68 ± 0.09 % IA/g
  Stomach, accumulated activity: 0.37 ± 0.14 % IA/g
  Tumor-to-blood ratio: 73 ± 7
  Tumor-to-kidney ratio: 3.7 ± 0.3
  Tumor-to-liver ratio: 99 ± 8
[2]; 4 h p.i.
  Blood, accumulated activity: ≤ 0.10 % IA/g
  Bone, accumulated activity: 0.14 ± 0.04 % IA/g
  Heart, accumulated activity: ≤ 0.10 % IA/g
  Intestines, accumulated activity: ≤ 0.10 % IA/g
  Kidneys, accumulated activity: 3.5 ± 0.6 % IA/g
  Liver, accumulated activity: 0.31 ± 0.04 % IA/g
  Lung, accumulated activity: ≤ 0.10 % IA/g
  Muscle, accumulated activity: ≤ 0.10 % IA/g
  PC-3 PIP tumor, accumulated activity: 43 ± 10 % IA/g
  PC-3 flu tumor, accumulated activity: 0.11 ± 0.02 % IA/g
  Salivary glands, accumulated activity: ≤ 0.10 % IA/g
  Spleen, accumulated activity: 0.12 ± 0.05 % IA/g
  Stomach, accumulated activity: ≤ 0.10 % IA/g
  Tumor-to-blood ratio: 2593 ± 825
  Tumor-to-kidney ratio: 13 ± 4
  Tumor-to-liver ratio: 142 ± 23
[2]; 24 h p.i.
  Blood, accumulated activity: ≤ 0.10 % IA/g
  Bone, accumulated activity: 0.11 ± 0.01 % IA/g
  Heart, accumulated activity: ≤ 0.10 % IA/g
  Intestines, accumulated activity: ≤ 0.10 % IA/g
  Kidneys, accumulated activity: 1.2 ± 0.2 % IA/g
  Liver, accumulated activity: 0.39 ± 0.06 % IA/g
  Lung, accumulated activity: ≤ 0.10 % IA/g
  Muscle, accumulated activity: ≤ 0.10 % IA/g
  PC-3 PIP tumor, accumulated activity: 37 ± 9 % IA/g
  PC-3 flu tumor, accumulated activity: 0.11 ± 0.08 % IA/g
  Salivary glands, accumulated activity: ≤ 0.10 % IA/g
  Spleen, accumulated activity: 0.13 ± 0.04 % IA/g
  Stomach, accumulated activity: ≤ 0.10 % IA/g
  Tumor-to-blood ratio: 4991 ± 3208
  Tumor-to-kidney ratio: 33 ± 9
  Tumor-to-liver ratio: 97 ± 20
[2]; 48 h p.i.
  Blood, accumulated activity: ≤ 0.10 % IA/g
  Bone, accumulated activity: 0.12 ± 0.04 % IA/g
  Heart, accumulated activity: ≤ 0.10 % IA/g
  Intestines, accumulated activity: ≤ 0.10 % IA/g
  Kidneys, accumulated activity: 0.79 ± 0.13 % IA/g
  Liver, accumulated activity: 0.44 ± 0.16 % IA/g
  Lung, accumulated activity: ≤ 0.10 % IA/g
  Muscle, accumulated activity: ≤ 0.10 % IA/g
  PC-3 PIP tumor, accumulated activity: 31 ± 3 % IA/g
  PC-3 flu tumor, accumulated activity: 0.26 ± 0.4 % IA/g
  Salivary glands, accumulated activity: ≤ 0.10 % IA/g
  Spleen, accumulated activity: 0.13 ± 0.02 % IA/g
  Stomach, accumulated activity: ≤ 0.10 % IA/g
  Tumor-to-blood ratio: 1716 ± 860
  Tumor-to-kidney ratio: 37 ± 6
  Tumor-to-liver ratio: 68 ± 15
[3]
  intact radioligand: > 99%

## CC(C)Cc1ccc(C(C)C(=O)NC(CCN)C(=O)NCCCCC(NC(=O)CN2CCN(CC(=O)[O-])CCN(CC(=O)[O-])CCN(CC(=O)[O-])CC2)C(=O)NCC2CCC(C(=O)NC(Cc3ccc4ccccc4c3)C(=O)NCCCCC(NC(=O)NC(CCC(=O)O)C(=O)O)C(=O)O)CC2)cc1.[225Ac+3] (centres unmarked) [[^225Ac]Ac-SibuDAB]
[1]
  Cell uptake: 59 ± 1%
  Internalization (internalized fraction): 25 ± 5%
PSMA
  Kd: 17 nM
[2]; 1 h p.i.
  Blood, accumulated activity: 23 ± 2 % IA/g
  Bone, accumulated activity: 2.5 ± 0.2 % IA/g
  Heart, accumulated activity: 7.4 ± 0.9 % IA/g
  Intestines, accumulated activity: 2.6 ± 0.5 % IA/g
  Kidneys, accumulated activity: 18 ± 1 % IA/g
  Liver, accumulated activity: 4.4 ± 0.4 % IA/g
  Lung, accumulated activity: 19 ± 2 % IA/g
  Muscle, accumulated activity: 2.0 ± 0.4 % IA/g
  PC-3 PIP tumor, accumulated activity: 20 ± 2 % IA/g
  PC-3 flu tumor, accumulated activity: 4.2 ± 1.1 % IA/g
  Salivary glands, accumulated activity: 4.7 ± 0.4 % IA/g
  Spleen, accumulated activity: 3.5 ± 0.3 % IA/g
  Stomach, accumulated activity: 2.4 ± 0.4 % IA/g
  Tumor-to-blood ratio: 0.9 ± 0.1
  Tumor-to-kidney ratio: 1.2 ± 0.1
  Tumor-to-liver ratio: 4.6 ± 0.5
[2]; 4 h p.i.
  Blood, accumulated activity: 16 ± 2 % IA/g
  Bone, accumulated activity: 2.2 ± 0.5 % IA/g
  Heart, accumulated activity: 5.5 ± 0.7 % IA/g
  Intestines, accumulated activity: 2.2 ± 0.3 % IA/g
  Kidneys, accumulated activity: 19 ± 1 % IA/g
  Liver, accumulated activity: 4.0 ± 0.3 % IA/g
  Lung, accumulated activity: 10 ± 2 % IA/g
  Muscle, accumulated activity: 1.9 ± 0.2 % IA/g
  PC-3 PIP tumor, accumulated activity: 45 ± 5 % IA/g
  PC-3 flu tumor, accumulated activity: 4.1 ± 0.8 % IA/g
  Salivary glands, accumulated activity: 3.7 ± 0.2 % IA/g
  Spleen, accumulated activity: 3.0 ± 0.5 % IA/g
  Stomach, accumulated activity: 1.8 ± 0.3 % IA/g
  Tumor-to-blood ratio: 2.9 ± 0.3
  Tumor-to-kidney ratio: 2.3 ± 0.1
  Tumor-to-liver ratio: 11 ± 1
[2]; 24 h p.i.
  Blood, accumulated activity: 3.3 ± 0.7 % IA/g
  Bone, accumulated activity: 0.81 ± 0.10 % IA/g
  Heart, accumulated activity: 1.5 ± 0.4 % IA/g
  Intestines, accumulated activity: 0.85 ± 0.14 % IA/g
  Kidneys, accumulated activity: 18 ± 2 % IA/g
  Liver, accumulated activity: 3.3 ± 0.4 % IA/g
  Lung, accumulated activity: 2.9 ± 0.4 % IA/g
  Muscle, accumulated activity: 0.58 ± 0.06 % IA/g
  PC-3 PIP tumor, accumulated activity: 80 ± 8 % IA/g
  PC-3 flu tumor, accumulated activity: 2.4 ± 0.9 % IA/g
  Salivary glands, accumulated activity: 1.7 ± 0.2 % IA/g
  Spleen, accumulated activity: 2.3 ± 0.5 % IA/g
  Stomach, accumulated activity: 0.72 ± 0.14 % IA/g
  Tumor-to-blood ratio: 25 ± 6
  Tumor-to-kidney ratio: 4.7 ± 0.9
  Tumor-to-liver ratio: 25 ± 5
[2]; 48 h p.i.
  Blood, accumulated activity: 1.1 ± 0.2 % IA/g
  Bone, accumulated activity: 0.48 ± 0.09 % IA/g
  Heart, accumulated activity: 0.73 ± 0.17 % IA/g
  Intestines, accumulated activity: 0.40 ± 0.08 % IA/g
  Kidneys, accumulated activity: 8.6 ± 1.1 % IA/g
  Liver, accumulated activity: 2.7 ± 0.5 % IA/g
  Lung, accumulated activity: 1.3 ± 0.3 % IA/g
  Muscle, accumulated activity: 0.30 ± 0.11 % IA/g
  PC-3 PIP tumor, accumulated activity: 64 ± 11 % IA/g
  PC-3 flu tumor, accumulated activity: 1.5 ± 0.4 % IA/g
  Salivary glands, accumulated activity: 0.92 ± 0.19 % IA/g
  Spleen, accumulated activity: 1.9 ± 0.5 % IA/g
  Stomach, accumulated activity: 0.38 ± 0.04 % IA/g
  Tumor-to-blood ratio: 62 ± 11
  Tumor-to-kidney ratio: 7.4 ± 1.3
  Tumor-to-liver ratio: 24 ± 4
[2]; 48 h p.i., PC-3 PIP tumor
  tumor uptake, higher than for [225Ac]Ac-PSMA-617: 2 fold
[3]
  intact radioligand: > 99%
